Assay results: patent publication US20230220206A1, “REJUVENATING AGENTS FOR ASPHALT RECYCLING” (BASF SE, priority 2020, published 2023)
Like-named read-outs stand apart in the source and are kept apart here. One block for each compound: values may come before it.

Legend:
[1] = MSCR test, percentage elastic recovery; type: physicochemical; conditions: bitumen 20/30 + 5% compound
[2] = bitumen 20/30 + 5% compound
[3] = Softening point ring & ball of rejuvenated bitumen; conditions: bitumen 20/30 rejuvenated with 5% of the compound, 180° C., 30 minutes
[4] = labelling of the product itself; — = none; cited from earlier work
[5] = MSCR elastic recovery of rejuvenated polymer-modified bitumen; type: physicochemical; conditions: Olexobit 45 + 5% compound
[6] = Force ductility of rejuvenated polymer-modified bitumen; type: physicochemical; conditions: Olexobit 45 + 5% compound
Excerpt: (§1) Herewith, it will be shown that the positive effects of the here claimed rejuvenating agents can also be applied to PmB, in this case Olexobit 45. Olexobit 45 was therefore rejuvenated according to the procedure of Example 1.

[7] = BBR of rejuvenated polymer-modified bitumen; type: physicochemical; conditions: Olexobit 45 + 5% compound
Protocol: (§2) Different bitumen samples were rejuvenated as in Example 1, and the BBR values S (flexural creep stiffness) and m […] were evaluated at −16° C. The results were compared to the not rejuvenated bitumen sample as well as to the bitumen rejuvenated with the benchmark RheoFalt® HP-AM (Comp. 1.3).

[8] = Softening point of rejuvenated RAP bitumen; type: physicochemical; conditions: bitumen extracted from RAP + 5% compound
[9] = MSCR elastic recovery of rejuvenated RAP bitumen; type: physicochemical; conditions: bitumen extracted from RAP + 5% compound
[10] = type: physicochemical; conditions: aged bitumen 50/70 BP + 5% compound
[11] = type: physicochemical; conditions: aged bitumen 50/70 PCK Schwedt + 5% compound
[12] = Softening point of rejuvenated aged bitumen; type: physicochemical; conditions: aged bitumen 50/70 BP + 5% compound
[13] = type: physicochemical; conditions: bitumen extracted from RAP + 5% compound
[14] = type: physicochemical; conditions: Olexobit 45 + 5% compound
[15] = Softening point of rejuvenated polymer-modified bitumen; type: physicochemical; conditions: Olexobit 45 + 5% compound
[16] = Softening point of rejuvenated aged bitumen; type: physicochemical; conditions: aged bitumen 50/70 PCK Schwedt + 5% compound
[17] = MSCR elastic recovery of rejuvenated aged bitumen; type: physicochemical; conditions: aged bitumen 50/70 BP + 5% compound
[18] = MSCR elastic recovery of rejuvenated aged bitumen; type: physicochemical; conditions: aged bitumen 50/70 PCK Schwedt + 5% compound
[19] = Ageing index (RTFOT ageing) of rejuvenated polymer-modified bitumen; type: physicochemical; conditions: Olexobit 45 + 5% compound; viscosity after ageing divided by viscosity before ageing
Excerpt: as §1

[20] = Low temperature performance, bending beam rheometer (BBR) at −16° C.; type: physicochemical
Protocol: as §2

[21] = Loss tangent from DSR frequency sweep at 60° C.; type: physicochemical
Excerpt: In addition, it could be shown that additives according to the present invention perform most of the times better than the common benchmarks according to the standard testing techniques for the low, mid and high temperature range. What cannot be extracted from these measurements however is an indication of the working mechanism.

[22] = TD NMR relaxation time measurements (SE-CPMG, multicomponent fitting); type: physicochemical; conditions: for 1/<1/T2e>: harmonic average relaxation time of the mobile components
Excerpt: TD NMR, also known as NMR relaxometry, is a known NMR technique and relies on measuring the relaxation times of the nuclear spin system instead of frequency-domain spectra. […] Also, sample preparation is much simpler as there are no concerns about sample homogeneity and no solvents are needed.
Like that, a clear distinction between protons in a solid, amorphous and liquid component can be made with good accuracy.
Bitumen 20/30 was rejuvenated with some of the here claimed rejuvenating agents according to example 1. The pure bitumen 20/30 as well as the rejuvenated bitumen 20/30 samples were then analyzed by TD NMR. To do so, all samples were heated up to 80° C. to allow filling of the samples into NMR tubes. After that, TD NMR measurements at 30° C., 80° C. and 140° C. were conducted using the SE-CMPG sequence. This sequence consists of a solid echo combined with a so-called CPMG (Carr-Purcell-Meiboom-Gill) train of subsequent spin echoes with alternating phase and is capable of recording the decay of coherence in the transverse nuclear magnetization over about 5 orders of magnitude in time. Depending on the measurement temperature, the experimental data were then fitted with semi-empirically selected multicomponent models involving several Gaussian and exponential components:
S(t)=[pg1 exp(−(t/T2g1)^2)+pg2 exp(−(t/T2g2)^2)]+pe1 exp(−t/T2e1)[pe2 exp(−t/T2e2)+pe3 exp(−t/T2e3)]
In order to assess the effect of temperature on the molecular mobility of the bitumen, experiments were conducted at temperatures of 30° C., 80° C. and 140° C., and the following models turned out to provide adequate fits of the respective normalized signal decay curves: • two Gaussians and one exponential at 30° C., • two Gaussians and two exponentials at 80° C., • three exponentials at 140° C.
From the fitting, different values can be obtained: • The p values (pg1, pg2, pe1, pe2 and pe3), indicating the signal fraction of the individual component scaled in the range from 0 to 1 • The T2 values (T2g1, T2g2, T2e1, T2e2 and T2e3), indicating the relaxation times that correspond to each of the individual components. The longer the relaxation time, the higher the molecular mobility of the respective component • In addition to the values T2e1, T2e2 and T2e3, we also calculated the average relaxation time of the mobile components, 1/<1/T2e>, for the temperatures at which more than one mobile component exist (80 and 140° C.). 1/<1/T2e> Is calculated as the harmonic average of the relaxation times involved:
[formula] • The type of the component, those being: • g1: the rigid component • g2: the partially mobile component • e1, e2 and e3: mobile components with increasingly high local molecular mobilities
It is believed that the rigid component g1 is directly correlated with the amount of the asphaltene aggregates. The mobile component(s) on the other hand can be attributed to the maltene phase.

[23] = aged bitumen 50/70 BP + 5% compound, lowest frequency
[24] = aged bitumen 50/70 PCK Schwedt + 5% compound, lowest frequency
[25] = bitumen 20/30 + 5% compound, lowest frequency (0.01 rad/s)
[26] = bitumen extracted from RAP + 5% compound, lowest frequency
[27] = 30° C., bitumen 20/30 + additive
[28] = 80° C., bitumen 20/30 + additive
[29] = 140° C., bitumen 20/30 + additive
[30] = aged bitumen 50/70 BP + 5% compound

MSCR % Rec. (0.1 kPa) [1]: 8%
MSCR % Rec. (1.6 kPa) [1]: 3%
MSCR % Rec. (3.2 kPa) [1]: 1%
η(135° C.) [mPas] [2]: 900 mPas
SP [° C.] (softening point) [3]: 52.0 °C
Compound: CC(COCC1CO1)(COCC1CO1)c1ccccc1 (stereo not drawn) [2-Methyl-2-phenyl-1,3-propandiol bis glycidylether]

MSCR % Rec. (0.1 kPa) [1]: 27%
MSCR % Rec. (1.6 kPa) [1]: 25%
MSCR % Rec. (3.2 kPa) [1]: 21%
η(135° C.) [mPas] [2]: 2,100 mPas
SP [° C.] (softening point) [3]: 64.0 °C
Compound: CCCCCCCCCCCCc1ccc(S(=O)(=O)O)cc1 [Dodecylbenzene sulfonic acid]
tox (toxicology/eco toxicology) [4]: Harmful

MSCR % Rec. (0.1 kPa) ([5]; 0.1 kPa): 19%
MSCR % Rec. (1.6 kPa) ([5]; 1.6 kPa): 7%
MSCR % Rec. (3.2 kPa) ([5]; 3.2 kPa): 4%
Force Ductility Fmax [N] [6]: 12 N
Force Ductility W [J/cm^2] [6]: 1.0 J/cm^2
BBR S-value [MPa] [7]: 80 MPa
BBR m-value [7]: 0.43
SP [° C.] [8]: 59.0 °C
MSCR % Rec. (0.1 kPa) [1]: 10%
MSCR % Rec. (1.6 kPa) [1]: 4%
MSCR % Rec. (3.2 kPa) [1]: 1%
η(135° C.) [mPas] [2]: 950 mPas
MSCR % Rec. (0.1 kPa) [9]: 16%
MSCR % Rec. (1.6 kPa) [9]: 12%
MSCR % Rec. (3.2 kPa) [9]: 7%
η(135° C.) [mPas] [10]: 1,000 mPas
η(135° C.) [mPas] [11]: 1,000 mPas
SP [° C.] [12]: 56.5 °C
η(135° C.) [mPas] [13]: 1,200 mPas
η(135° C.) [mPas] [14]: 700 mPas
SP [° C.] [15]: 49.0 °C
SP [° C.] (softening point) [3]: 52.0 °C
SP [° C.] [16]: 56.0 °C
MSCR % Rec. (0.1 kPa) [17]: 14%
MSCR % Rec. (1.6 kPa) [17]: 10%
MSCR % Rec. (3.2 kPa) [17]: 5%
MSCR % Rec. (0.1 kPa) [18]: 11%
MSCR % Rec. (1.6 kPa) [18]: 7%
MSCR % Rec. (3.2 kPa) [18]: 3%
AI (ageing index) [19]: 2.1
S-value [MPa] (flexural creep stiffness) ([20]; bitumen 20/30 + 5% compound): 90 MPa
m-value ([20]; bitumen 20/30 + 5% compound): 0.41
tan δ [21, 23]: 35
tan δ [21, 24]: 40
tan δ [21, 25]: 45
tan δ [21, 26]: 25
Compound: CC(C)CCCCCCOC(=O)C1CCCCC1C(=O)OCCCCCCC(C)C (stereo not drawn) [Hexamoll ® DINCH, diisononyl cyclohexane-1,2-dicarboxylate]

SP [° C.] [8]: 53.0 °C
MSCR % Rec. (0.1 kPa) [1]: 4%
MSCR % Rec. (1.6 kPa) [1]: 1%
MSCR % Rec. (3.2 kPa) [1]: 0%
η(135° C.) [mPas] [2]: 800 mPas
MSCR % Rec. (0.1 kPa) [9]: 7%
MSCR % Rec. (1.6 kPa) [9]: 3%
MSCR % Rec. (3.2 kPa) [9]: 1%
η(135° C.) [mPas] [10]: 950 mPas
η(135° C.) [mPas] [11]: 700 mPas
SP [° C.] [12]: 51.0 °C
T2e1 [22, 27]: 0.20 ms
T2g1 [22, 27]: 0.016 ms
T2g2 [22, 27]: 0.045 ms
pe1 ([22]; 30° C., mobile component, bitumen 20/30 + additive): 0.44
pg2 ([22]; 30° C., partially mobile component, bitumen 20/30 + additive): 0.17
pg1 ([22]; 30° C., signal fraction of rigid component, bitumen 20/30 + additive): 0.38
T2e1 [22, 28]: 0.50 ms
T2e2 [22, 28]: 2.53 ms
T2g1 [22, 28]: 0.017 ms
T2g2 [22, 28]: 0.054 ms
pe1 [22, 28]: 0.48
pe2 [22, 28]: 0.35
pg1 [22, 28]: 0.09
pg2 [22, 28]: 0.074
1/<1/T2e> ([22]; 80° C.): 0.76 ms
T2e1 [22, 29]: 0.21 ms
T2e2 [22, 29]: 4.76 ms
T2e3 [22, 29]: 25.72 ms
pe1 [22, 29]: 0.18
pe2 [22, 29]: 0.47
pe3 [22, 29]: 0.34
1/<1/T2e> ([22]; 140° C.): 1.0 ms
η(135° C.) [mPas] [13]: 850 mPas
SP [° C.] (softening point) [3]: 47.0 °C
SP [° C.] [16]: 50.0 °C
MSCR % Rec. (0.1 kPa) [17]: 5%
MSCR % Rec. (1.6 kPa) [17]: 2%
MSCR % Rec. (3.2 kPa) [17]: 0%
MSCR % Rec. (0.1 kPa) [18]: 5%
MSCR % Rec. (1.6 kPa) [18]: 1%
MSCR % Rec. (3.2 kPa) [18]: 0%
S-value [MPa] (flexural creep stiffness) [20, 30]: 90 MPa
m-value [20, 30]: 0.43
S-value [MPa] (flexural creep stiffness) ([20]; bitumen 20/30 + 5% compound): 90 MPa
m-value ([20]; bitumen 20/30 + 5% compound): 0.44
tan δ [21, 23]: 80
tan δ [21, 24]: 100
tan δ [21, 25]: 80
tan δ [21, 26]: 70
Compound: CCCCCCCCCCCCN1CCCC1=O [N-Dodecyl pyrrolidone]

Compound: CC(C)(COCC1CO1)COCC1CO1 (stereo not drawn) [Neopentylglycol bis glycidylether]
tox (toxicology/eco toxicology) [4]: Irritating
MSCR % Rec. (0.1 kPa) [1]: 11%
MSCR % Rec. (1.6 kPa) [1]: 5%
MSCR % Rec. (3.2 kPa) [1]: 2%
η(135° C.) [mPas] [2]: 1,050 mPas
SP [° C.] (softening point) [3]: 52.0 °C

Compound: CC(C)CCCCCCOC(=O)c1ccccc1C(=O)OCCCCCCC(C)C [Palatinol ® DINP, diisononyl phthalate]
MSCR % Rec. (0.1 kPa) [1]: 9%
MSCR % Rec. (1.6 kPa) [1]: 3%
MSCR % Rec. (3.2 kPa) [1]: 1%
η(135° C.) [mPas] [2]: 950 mPas
SP [° C.] (softening point) [3]: 52.0 °C

η(135° C.) [mPas] [2]: 950 mPas
Compound: Dodecenyl succinic acid anhydride

MSCR % Rec. (0.1 kPa) [1]: 16%
MSCR % Rec. (1.6 kPa) [1]: 10%
MSCR % Rec. (3.2 kPa) [1]: 5%
η(135° C.) [mPas] [2]: 1,000 mPas
SP [° C.] (softening point) [3]: 57.0 °C
Compound: Polyethylenglycol bis glycidylether
